In PMC10610134, “Verubulin (Azixa) Analogues with Increased Saturation: Synthesis, SAR and Encapsulation in Biocompatible Nanocontainers Based on Ca^2+ or Mg^2+ Cross-Linked Alginate” (Pharmaceuticals, 2023) one finds IC50 data, which are given here for one compound.

Test [1] concerns human breast cancer cell line MCF7′. The experiment in a line: MTT cytotoxicity assay, MCF7′. Format: cell-based. Particulars: MCF7, 64 h treatment, MTT, read-out: IC50, nM MCF7′. The source says:
(§1) The obtained series of verubulin analogues 2a–r (which also included three by-products isolated in the reactions according to Scheme 2) were initially evaluated for cytotoxicity against commonly used human breast cancer cell line MCF7′ (fast-growth subclone), human lung epithelial carcinoma cell line A549 and etiologically non-cancer immortalized lung fibroblast cell line VA13 (WI38 subline 2RA). Cytotoxicity against immortalized human embryonic kidney cell line HEK293T, characterized by a high growth rate, was also studied regarding cytotoxicity against non-cancerous fast-growth cells. A standard MTT assay was performed; verubulin (1) served as a positive reference. The data obtained are presented in Table 1 (for dose–response curves, see Supplementary Materials).
(§2) Human breast cancer cell line MCF7′ and human lung adenocarcinoma cell line A549 were kindly provided by Dr. S. Dmitriev (Lomonosov Moscow State University), immortalized human fibroblast cell line VA13 (WI38 subline 2RA) was kindly provided by Dr. M. Rubtsova (Lomonosov Moscow State University), human embryonic kidney HEK293T cell line was kindly provided by Dr. E. Knyazhanskaya (Lomonosov Moscow State University). MCF7′, VA13, A549 and HEK293T cell lines were maintained in DMEM/F-12 (Thermo Fisher Scientific, Waltham, MA, USA) culture medium containing 10% fetal bovine serum (Thermo Fisher Scientific, Waltham, MA, USA) and 50 μg/mL penicillin and 0.05 mg/mL streptomycin at 37 °C (Thermo Fisher Scientific, Waltham, MA, USA) in 5% CO2. Cells were maintained at 37 °C in a humidified MCO-18AC incubator (Sanyo, Tokyo, Japan) supplied with 5% CO2. Cell cultures were tested for the absence of mycoplasma and validated by STR.
(§3) The cytotoxicity of the substances was tested using the 3-(4,5-dimethylthiazol-2-yl)2,5-diphenyl tetrazolium bromide (MTT) assay with some modifications. A total of 2500 cells per well for the MCF7′, HEK293T, A549 cell lines or 4000 cells per well for the VA-13 cell line were plated out in 135 μL of DMEM-F12 media (Gibco, Thermo Fisher Scientific, Waltham, MA, USA) in a 96-well plate and incubated in the 5% CO2 incubator for the first 20 h without treatment. Then, 15.8 μL of media–DMSO solutions of tested substances (final DMSO concentrations in the media were 0.5% or less) was added to the cells (triplicate each) and cells were treated for 64 h with 0.023 mg/L–50 mg/L (eight dilutions) of compounds 2f,n,o,r; 1.14 μg/L–2.5 mg/L (eight dilutions) of compounds 2a,b,d,g,h,k,l,p,q; 57.2 ng/L–125 μg/L (eight dilutions) of compounds 2e,i,j; 22.9 ng/L–50 μg/L (eight dilutions) of compounds 1,2c,m. Doxorubicin was used as a control substance. Then, the MTT reagent (Paneco LLC, Moscow, Russia) was added to cells up to a final concentration of 0.5 g/L (10 × stock solution in PBS was used) and incubated for 2 h at 37 °C in the incubator, under an atmosphere of 5% CO2. Then, the MTT solution was discarded, and 140 μL of DMSO (PharmaMed LLC, Moscow, Russia) was added. The plates were swayed on a shaker (120 rpm) to dissolve the formazan. The absorbance was measured using a microplate reader (VICTOR X5 Light Plate Reader, PerkinElmer, Waltham, MA, USA) at a wavelength of 555 nm (in order to measure formazan concentration). The results were used to construct dose–response graphs and to estimate IC50 values (IC50 is the concentration resulting in half of the maximal cytotoxic effect) with GraphPad Prism V, GraphPadSoftware, Inc., San Diego, CA, USA.

Test [2] concerns human lung epithelial carcinoma cell line A549. Description: MTT cytotoxicity assay, A549. To be noted: A549, 64 h treatment, MTT, read-out: IC50, nM A549. The test is classed as cell-based.
Excerpt: as §1, §2, §3

For another test, the system named is HCT116 cell line. Description: MTT cytotoxicity towards HCT116. The test is classed as cell-based, human. Particulars: HCT-116; HCT116, human colon carcinoma; read-out: IC50.
The test system of test [3] is hTERT-immortalized human fibroblasts. Description: MTT assay of nanocontainer formulations, fibroblasts. To be noted: Fibroblast, 48 h treatment, 2c concentration in formulations = 0.1 × COO− concentration. Format: cell-based. The procedure:
The MTT assay was carried out on the A549 cell line and non-tumor hTERT-immortalized human fibroblasts for 48 h (Table 2; for cell survival curves, see Supplementary Materials).
Lung adenocarcinoma A549, breast adenocarcinoma MDA-MB-231 and non-tumor fibroblasts immortalized with h-TERT cell lines were obtained from the American Type Culture Collection (Manassas, VA, USA). Cells were routinely propagated in Dulbecco’s modified Eagle’s medium (DMEM) supplemented with 10% fetal bovine serum (HyClone, Logan, UT, USA), 2 mM L-glutamine, 100 U/mL penicillin and 100 μg/mL streptomycin (PanEco, Moscow, Russia) at 37 °C, 5% CO2 in a humidified atmosphere. Cells in the logarithmic phase of growth were used in the experiments.
The cytotoxicity of compounds for human cell lines (A549, MDA-MB-231, non-tumor fibroblasts) was assessed in MTT assays. […]
Cytotoxicity was assessed in a formazan conversion assay (MTT test) after a 48 h exposure. After the completion of drug exposure, 0.5 mg/mL 3-(4,5-dimethylthiazol-2-yl)-2,5-diphenyltetrazolium bromide (MTT reagent) was added to cells for 2 h, the culture medium was removed, cells were resuspended in 100 μL DMSO and the optical densities were measured on a Multiscan FC plate spectrophotometer (Thermo Fisher Scientific, Waltham, MA, USA) at a wavelength of 571 nm. […]

In the case of `COc1ccc(N(C)c2nc(C)nc3c2CCCC3)cc1` [Compound 2c, N-(4-methoxyphenyl)-N,2-dimethyl-5,6,7,8-tetrahydroquinazolin-4-amine], the IC50 in test [1] was 3.6 ± 0.4 nM; in test [2], 2.7 ± 0.4 nM; in the test with HCT116 cell line it was 0.2 ± 0.01 nM; in test [3], 4.2 ± 0.3 µM.
